# Experimental data taken from ChEMBL document CHEMBL4152285, “Structure-based design and profiling of novel 17β-HSD14 inhibitors” (Eur J Med Chem, 2018).
# pKi: −log10 of the molar value. The source made the active and inactive calls. No cut-off for these calls is given here.
# Key:
# [1] = target: T1, 17-beta-hydroxysteroid dehydrogenase type 1 (Homo sapiens) (UniProt P14061); assay: Inhibition of human placental cytosolic 17beta-HSD1 using [2,4,6,7-3H]-labeled E1/E1 as substrate and NADH at 1 uM after 10 mins by HPLC based radioflow detection method
# T1 sequence (whole entry): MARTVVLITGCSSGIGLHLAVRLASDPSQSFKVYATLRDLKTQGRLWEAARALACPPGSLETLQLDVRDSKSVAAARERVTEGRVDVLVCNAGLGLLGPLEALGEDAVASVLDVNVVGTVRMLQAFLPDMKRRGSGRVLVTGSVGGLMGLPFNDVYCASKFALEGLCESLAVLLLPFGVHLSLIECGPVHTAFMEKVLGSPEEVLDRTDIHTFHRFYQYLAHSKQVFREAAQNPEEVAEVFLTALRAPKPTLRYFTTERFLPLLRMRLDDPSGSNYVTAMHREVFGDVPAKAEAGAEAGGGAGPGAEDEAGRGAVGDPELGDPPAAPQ
# [2] = target: T2, 3-hydroxyacyl-CoA dehydrogenase type-2 (Homo sapiens) (UniProt Q99714); assay: Inhibition of human full length N-terminal GST-tagged 17beta-HSD10 expressed in Escherichia coli BL21 DE3 Codon plus using [6,7-3H]-labeled E2/E2 as substrate and NADH at 1 uM after 30 mins by HPLC based radioflow detection method
# T2 sequence (whole entry): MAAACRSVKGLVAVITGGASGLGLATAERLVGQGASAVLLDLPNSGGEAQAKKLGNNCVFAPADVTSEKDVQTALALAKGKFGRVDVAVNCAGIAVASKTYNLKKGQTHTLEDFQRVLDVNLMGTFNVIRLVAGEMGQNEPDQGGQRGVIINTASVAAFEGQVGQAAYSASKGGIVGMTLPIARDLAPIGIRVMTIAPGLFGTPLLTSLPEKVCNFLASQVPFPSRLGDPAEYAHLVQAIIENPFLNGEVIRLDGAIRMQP
# [3] = target: T3, 17-beta-hydroxysteroid dehydrogenase 14 (Homo sapiens, UniProt Q9BPX1); assay: Binding affinity to recombinant 17beta-HSD14 (unknown origin) expressed in Escherichia coli BL21 pLysS strain using E2 as substrate in presence of NAD measured continuously for 15 mins by fluorimetric method
# T3 sequence (Q9BPX1 whole entry): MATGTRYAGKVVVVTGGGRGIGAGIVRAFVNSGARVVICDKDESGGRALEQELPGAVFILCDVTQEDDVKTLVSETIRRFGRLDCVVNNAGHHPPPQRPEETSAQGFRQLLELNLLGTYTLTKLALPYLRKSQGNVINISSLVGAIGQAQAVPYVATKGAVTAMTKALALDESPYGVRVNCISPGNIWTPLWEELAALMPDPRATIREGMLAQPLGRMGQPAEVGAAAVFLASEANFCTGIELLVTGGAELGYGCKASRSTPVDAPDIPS
# [4] = target: T4, 17-beta-hydroxysteroid dehydrogenase type 2 (Homo sapiens) (UniProt P37059); assay: Inhibition of human placental cytosolic 17beta-HSD2 using [2,4,6,7-3H]-labeled E2/E2 as substrate and NADH at 1 uM after 10 mins by HPLC based radioflow detection method
# T4 sequence (whole entry): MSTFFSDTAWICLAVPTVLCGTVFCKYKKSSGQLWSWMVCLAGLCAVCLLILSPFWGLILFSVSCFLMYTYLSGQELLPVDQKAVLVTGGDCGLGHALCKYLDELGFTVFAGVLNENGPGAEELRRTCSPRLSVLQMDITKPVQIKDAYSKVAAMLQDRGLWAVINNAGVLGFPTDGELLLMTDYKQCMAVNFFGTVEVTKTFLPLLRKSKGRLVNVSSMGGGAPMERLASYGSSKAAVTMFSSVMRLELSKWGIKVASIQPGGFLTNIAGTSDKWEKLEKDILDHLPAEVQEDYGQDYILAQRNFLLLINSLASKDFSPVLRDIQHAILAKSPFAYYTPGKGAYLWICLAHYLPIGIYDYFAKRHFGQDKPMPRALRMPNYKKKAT
# [5] = Solubility of the compound in PBS at 200 uM at pH 7.4 measured after 24 hrs; type: physicochemical
# [6] = Cytotoxicity against HEK293 cells assessed as decrease in cell viability after 72 hrs by MTT assay; type: cell-based; details: human, read-out: IG50
# [7] = Cytotoxicity against HEK293 cells assessed as cell survival at 20 uM after 72 hrs by MTT assay relative to control; type: cell-based; details: human, read-out: Survival
# [8] = target: T5, 17-beta-hydroxysteroid dehydrogenase 14 (Homo sapiens) (UniProt Q9BPX1); assay: Inhibition of recombinant 17beta-HSD14 (unknown origin) expressed in Escherichia coli BL21 pLysS strain at 100 uM using E2 as substrate in presence of NAD measured continuously for 15 mins by fluorimetric method
# T5 sequence (whole entry): T3 sequence (Q9BPX1 whole entry)
# Estrogen receptor = target: T6, Estrogen receptor (Homo sapiens, UniProt P03372); assay: Agonist activity at ERalpha (unknown origin) expressed in human U2OS cells after 24 hrs by luciferase reporter gene assay; type: cell-based
# T6 sequence (P03372 whole entry): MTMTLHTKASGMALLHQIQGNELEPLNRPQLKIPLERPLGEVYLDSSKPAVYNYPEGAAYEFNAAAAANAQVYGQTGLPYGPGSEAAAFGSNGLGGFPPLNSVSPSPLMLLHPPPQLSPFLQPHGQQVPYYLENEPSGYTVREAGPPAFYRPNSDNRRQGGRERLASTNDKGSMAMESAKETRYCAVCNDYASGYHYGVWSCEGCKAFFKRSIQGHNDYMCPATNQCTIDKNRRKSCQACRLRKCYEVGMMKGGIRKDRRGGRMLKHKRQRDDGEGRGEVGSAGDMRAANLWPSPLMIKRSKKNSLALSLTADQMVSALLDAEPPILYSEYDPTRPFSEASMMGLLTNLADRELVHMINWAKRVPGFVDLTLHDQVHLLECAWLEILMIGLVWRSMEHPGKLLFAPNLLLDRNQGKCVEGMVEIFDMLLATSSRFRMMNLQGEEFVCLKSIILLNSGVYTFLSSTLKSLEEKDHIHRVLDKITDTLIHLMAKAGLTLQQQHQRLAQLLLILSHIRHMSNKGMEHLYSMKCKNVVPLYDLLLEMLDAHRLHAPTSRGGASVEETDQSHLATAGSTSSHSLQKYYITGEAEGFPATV
# [9] = target: T5, 17-beta-hydroxysteroid dehydrogenase 14 (Homo sapiens); assay: Inhibition of recombinant 17beta-HSD14 (unknown origin) expressed in Escherichia coli BL21 pLysS strain at 2 uM using E2 as substrate in presence of NAD measured continuously for 15 mins by fluorimetric method
# [10] = target: T7, ERalpha (estrogen receptor) (Homo sapiens, UniProt P03372); assay: Agonist activity at ERalpha (unknown origin) expressed in human U2OS cells after 24 hrs by luciferase reporter gene assay relative to E2; type: cell-based; details: U2OS cells expressing ERalpha, read-out: Activity
# T7 sequence (P03372 whole entry): T6 sequence (P03372 whole entry)
inhibition [1],inhibition [2],pKi [3],inhibition [4] [%],"solubility at 24 h, 200 µM [5] [µM]",inhibition [8] [%],inhibition [9] [%],Structure (SMILES),GI50 at 72 h [6] [nM],"viability at 72 h, 20 µM [7] [%]",Activity (Estrogen receptor),Emax at 24 h [10] [%]
99%,19%,7.38,100,> 200,,,CN(c1ccc(F)c(O)c1)c1cccc(-c2cccc(O)c2F)n1,,,,
57%,inactive,7.33,82,> 200,,,Oc1cc(Nc2cccc(-c3cccc(O)c3F)n2)ccc1F,,,,
,,,,100 to 200,21,,COc1cc(C(=O)c2ccc3ccccc3n2)ccc1F,,,,
,,5.69,,,,,CN(C(=O)c1ccc(F)c(O)c1)c1cccc(-c2cccc(O)c2F)n1,,,,
6%,inactive,7.92,76,> 200,,69,O=C(c1ccc(F)c(O)c1)c1ccc2ccccc2n1,,,,
21%,inactive,7.47,83,> 200,,,Nc1ccc2ccc(C(=O)c3ccc(F)c(O)c3)nc2c1,,,,
69%,17%,7.24,100,> 200,,,Oc1cc(Oc2cccc(-c3cccc(O)c3F)n2)ccc1F,,,,
11%,inactive,8.22,80,13 to 25,,,Cc1cc(-c2ccc3ccc(C(=O)c4ccc(F)c(O)c4)nc3c2)ccc1O,,,,
,,6.47,,,,,O=C(Nc1ccc(F)c(O)c1)c1cccc(-c2cccc(O)c2F)n1,,,,
,,6.16,,,,,O=C(Nc1cccc(-c2cccc(O)c2F)n1)c1ccc(F)c(O)c1,,,,
64%,inactive,8.22,96,25 to 50,,,O=C(c1ccc(F)c(O)c1)c1ccc2ccccc2c1,,,,

Structure (SMILES),inhibition [1],inhibition [2],pKi [3],inhibition [4] [%],"solubility at 24 h, 200 µM [5] [µM]",inhibition [8] [%],inhibition [9] [%],GI50 at 72 h [6] [nM],"viability at 72 h, 20 µM [7] [%]",Activity (Estrogen receptor),Emax at 24 h [10] [%]
O=C(c1ccc(F)c(O)c1)c1ccc2cc(O)ccc2n1,20%,inactive,6.92,71,> 200,,,> 100000,80,,
N#Cc1ccc2ccc(C(=O)c3ccc(F)c(O)c3)nc2c1,inactive,inactive,8.05,56,25 to 50,,,,80,Not Active,
Cc1ccc2nc(C(=O)c3ccc(F)c(O)c3)ccc2c1,12%,inactive,8.22,78,25 to 50,,,,80,,
O=C(c1ccc(F)c(O)c1)c1cccc(-c2cccc(O)c2F)n1,8%,inactive,,56,> 200,,,> 100000,80,,13
O=C(c1ccc(F)c(O)c1)c1ccc2ccc(-c3nnn[nH]3)cc2n1,inactive,inactive,8.00,52,50 to 100,,,> 100000,80,Not Active,
C=C(c1ccc(F)c(O)c1)c1cccc(-c2cccc(O)c2F)n1,88%,inactive,8.82,100,> 200,,,> 100000,80,,
